Experimental data taken from ChEMBL document CHEMBL5512626, “Discovery of potent small molecule inhibitors of histone lysine methyltransferase NSDs” (Eur J Med Chem, 2024).

How the values were obtained:
[1] = target: T1, Histone-lysine N-methyltransferase NSD3 (Homo sapiens, UniProt Q9BZ95); experiment: Inhibition of recombinant NSD3 (1021 to 1322 residues) (unknown origin) expressed in Escherichia coli Rossetta (DE3) using H3K36me1 as substrate incubated for 20 mins in presence of SAM by HTRF assay
T1 sequence (Q9BZ95 whole entry): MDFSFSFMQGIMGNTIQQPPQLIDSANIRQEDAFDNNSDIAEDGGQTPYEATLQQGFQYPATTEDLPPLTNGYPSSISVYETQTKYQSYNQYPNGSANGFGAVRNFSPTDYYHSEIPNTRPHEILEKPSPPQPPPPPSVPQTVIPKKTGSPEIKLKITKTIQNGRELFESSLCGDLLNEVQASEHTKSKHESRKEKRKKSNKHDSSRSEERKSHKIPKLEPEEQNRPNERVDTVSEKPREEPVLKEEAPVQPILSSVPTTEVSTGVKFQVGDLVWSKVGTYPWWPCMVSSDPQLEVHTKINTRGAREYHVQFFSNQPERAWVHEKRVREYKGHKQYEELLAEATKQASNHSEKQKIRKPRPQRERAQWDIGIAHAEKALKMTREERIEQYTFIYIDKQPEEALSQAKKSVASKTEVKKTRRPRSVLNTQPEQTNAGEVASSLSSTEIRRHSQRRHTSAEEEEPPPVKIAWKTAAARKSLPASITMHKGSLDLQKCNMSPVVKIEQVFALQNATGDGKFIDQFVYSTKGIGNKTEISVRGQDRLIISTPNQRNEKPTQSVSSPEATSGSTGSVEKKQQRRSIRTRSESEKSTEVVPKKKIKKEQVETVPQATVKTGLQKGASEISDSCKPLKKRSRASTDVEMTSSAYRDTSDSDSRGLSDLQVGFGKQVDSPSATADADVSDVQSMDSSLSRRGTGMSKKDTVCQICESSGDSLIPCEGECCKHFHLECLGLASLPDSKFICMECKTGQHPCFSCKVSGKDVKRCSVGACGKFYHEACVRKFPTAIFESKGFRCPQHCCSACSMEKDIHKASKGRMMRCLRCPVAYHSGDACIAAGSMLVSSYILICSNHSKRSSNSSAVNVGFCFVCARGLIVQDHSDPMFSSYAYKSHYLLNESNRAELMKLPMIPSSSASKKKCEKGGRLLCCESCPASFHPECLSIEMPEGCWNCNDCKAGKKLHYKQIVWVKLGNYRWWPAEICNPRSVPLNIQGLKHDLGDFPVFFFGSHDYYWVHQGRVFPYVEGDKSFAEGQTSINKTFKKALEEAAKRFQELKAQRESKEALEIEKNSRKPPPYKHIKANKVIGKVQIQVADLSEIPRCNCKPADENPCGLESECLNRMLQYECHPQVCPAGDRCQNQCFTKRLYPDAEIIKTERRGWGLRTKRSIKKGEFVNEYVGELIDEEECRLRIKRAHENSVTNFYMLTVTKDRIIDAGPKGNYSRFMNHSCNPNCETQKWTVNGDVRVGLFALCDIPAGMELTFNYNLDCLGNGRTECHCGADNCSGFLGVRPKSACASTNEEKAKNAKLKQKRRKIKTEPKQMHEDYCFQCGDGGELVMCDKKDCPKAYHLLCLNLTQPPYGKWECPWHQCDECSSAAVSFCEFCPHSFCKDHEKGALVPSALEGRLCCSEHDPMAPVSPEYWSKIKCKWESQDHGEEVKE

[2] = Inhibition of cell proliferation of rat RN 22 cells incubated for 6 days by Real-time Glow MT assay; type: functional, cell-based; settings: RN 22, 144 h
[3] = target: T1, Histone-lysine N-methyltransferase NSD3; experiment: Inhibition of recombinant NSD3 (1021 to 1322 residues) (unknown origin) expressed in Escherichia coli Rossetta (DE3)
[4] = target: T2, Histone-lysine N-methyltransferase NSD2 (Homo sapiens, UniProt O96028); experiment: Inhibition of recombinant NSD2 (942 to 1240 residues) (unknown origin) expressed in Escherichia coli Rossetta (DE3) using H3K36me1 as substrate incubated for 20 mins in presence of SAM by HTRF assay
T2 sequence (O96028 whole entry): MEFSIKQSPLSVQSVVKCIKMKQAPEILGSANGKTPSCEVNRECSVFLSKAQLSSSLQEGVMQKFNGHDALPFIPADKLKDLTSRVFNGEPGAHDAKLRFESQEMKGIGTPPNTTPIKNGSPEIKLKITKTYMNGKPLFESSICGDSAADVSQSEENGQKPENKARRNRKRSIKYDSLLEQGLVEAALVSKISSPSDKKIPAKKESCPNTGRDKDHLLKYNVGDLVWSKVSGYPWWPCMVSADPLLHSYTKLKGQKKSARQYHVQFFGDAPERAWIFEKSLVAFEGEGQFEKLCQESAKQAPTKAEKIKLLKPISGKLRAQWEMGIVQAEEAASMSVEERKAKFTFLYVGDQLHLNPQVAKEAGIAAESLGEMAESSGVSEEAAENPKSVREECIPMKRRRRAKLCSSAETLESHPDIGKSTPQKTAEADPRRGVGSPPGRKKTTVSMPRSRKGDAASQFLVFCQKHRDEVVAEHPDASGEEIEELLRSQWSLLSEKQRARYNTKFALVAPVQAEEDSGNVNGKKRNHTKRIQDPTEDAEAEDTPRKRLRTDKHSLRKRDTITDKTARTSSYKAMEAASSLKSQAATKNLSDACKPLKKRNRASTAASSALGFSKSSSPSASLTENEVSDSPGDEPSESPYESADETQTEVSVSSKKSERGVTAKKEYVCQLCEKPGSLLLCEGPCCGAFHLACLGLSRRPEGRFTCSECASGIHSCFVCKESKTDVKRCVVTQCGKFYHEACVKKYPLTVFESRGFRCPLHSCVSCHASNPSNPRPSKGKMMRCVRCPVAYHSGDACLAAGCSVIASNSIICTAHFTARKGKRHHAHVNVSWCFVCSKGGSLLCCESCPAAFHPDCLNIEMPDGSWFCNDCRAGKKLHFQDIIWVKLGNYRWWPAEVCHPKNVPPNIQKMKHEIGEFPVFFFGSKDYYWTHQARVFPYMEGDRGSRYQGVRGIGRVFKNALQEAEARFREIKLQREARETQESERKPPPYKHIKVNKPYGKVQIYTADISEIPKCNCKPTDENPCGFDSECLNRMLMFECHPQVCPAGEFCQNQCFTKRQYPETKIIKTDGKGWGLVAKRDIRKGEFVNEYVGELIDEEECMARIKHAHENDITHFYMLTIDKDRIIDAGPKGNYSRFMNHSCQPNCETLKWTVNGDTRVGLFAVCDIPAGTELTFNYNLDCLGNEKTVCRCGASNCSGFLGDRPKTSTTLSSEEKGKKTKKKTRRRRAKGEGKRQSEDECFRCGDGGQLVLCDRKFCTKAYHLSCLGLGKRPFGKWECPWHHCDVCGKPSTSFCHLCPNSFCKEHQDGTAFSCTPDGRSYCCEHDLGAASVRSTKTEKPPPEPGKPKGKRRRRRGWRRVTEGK

Row | SMILES | IC50 [1] | IC50 [3] [µM] | other results
1 | Nc1ccc(OCCn2cnc3c(N)ncnc32)cc1 | Not Active | – | –
2 | Cc1cc(CN)cc(C)c1-c1ncn(C)c1-c1ccnc2cc(F)ccc12 | – | – | IC50 [2]: 13 µM
3 | CCOc1ccc(OCCn2c(S)nc3c(N)ncnc32)cc1 | – | 32.2 | –
4 | N#Cc1ccccc1OCCn1cnc2c(N)ncnc21 | Not Active | – | –
5 | CSc1nc2c(N)ncnc2n1CCOc1ccc(C#N)cc1 | Not Active | – | IC50 [4]: Not Active
6 | Cc1ccc(OCCn2c(S)nc3c(N)ncnc32)cc1 | – | 14.3 | –
7 | N#Cc1ccc(OCCn2c(Br)nc3c(N)ncnc32)cc1 | Not Active | – | –
8 | CC(=O)Nc1ccc(OCCn2cnc3c(N)ncnc32)cc1 | Not Active | – | –
9 | Nc1ncnc2c1ncn2CCOc1ccccc1Cl | Not Active | – | –
10 | CC(C)Oc1ccc(OCCn2c(S)nc3c(N)ncnc32)cc1 | – | 13.8 | –
